The text below walks through data of patent US7915220B2, “Peptidomimetic agents from dextrorotatory amino acids as well as pharmaceutical agents that contain the latter for treatment of neurodegenerative diseases” (JSW-Research Forschungslabor GmbH, priority 2006, dated 2011).

Where a SMILES comes first, the peptide text is derived from it. [ ]: non-standard residue; d: D form. A value given as a limit tells only on which side of the number the result lay.

A short description of data set [1]: Stability of peptides incubated with rat brain homogenate (RP-HPLC / LC-MS). In kind it is in vitro ADME. Particulars: for remaining at 0.25 h, 0.2 mM / remaining at 1 h, 0.2 mM / remaining at 3 h, 0.2 mM / remaining at 24 h, 0.2 mM: pH 7.6, 37° C.; for remaining at 0.25 h, 0.2 mM: 15 minutes, read-out: portion of the amount of sample used left after 15 Minutes; for remaining at 1 h, 0.2 mM: read-out: portion of the amount of sample used left after 1 Hour; for remaining at 3 h, 0.2 mM: read-out: portion of the amount of sample used left after 3 Hours; for remaining at 24 h, 0.2 mM: read-out: portion of the amount of sample used left after 24 Hours; for half-life at 0.2 mM: tris buffer pH 7.6, 37° C. As to the method: An essential advantage of the peptidomimetic agents according to the invention, which consist of D-amino acids as well as glycine, is the higher stability compared to the degradation by various enzymes that occur in the body—in particular peptidases. For this reason, the stability of the nuclear sequence mimetic agent vGek was compared to that of the corresponding retroinverse peptide KEGV according to WO 03/082906 A, whereby the peptides together with a rat brain homogenate were incubated for 15 minutes as well as for 1, 3 and 24 hours.
To this end, freshly isolated rat brain was homogenized in tris buffer (pH 7.6) and used immediately. In each case, a portion of a 1 mmol peptide solution and four parts of the homogenate were incubated at 37° C. After the incubation, the decomposition of the enzymes was halted by adding 50 μl of 0.1 M HCl. Then, a denaturation of the proteins was carried out with methanol (volume ratio: 1:4) at −20° C. for 60 minutes. Then, it was centrifuged for 20 minutes at 4° C. and 29,000 g.
Finally, the samples were concentrated under vacuum and analyzed by means of RP-HPLC (liquid chromatography, with UV/vis detector, detection wavelength: 220 nm; solvent: (A) 0.1% TFA/water (A), 0.1% TFA in 80% ACN/water (B); column: Phenomenex Jupiter C18 (250×4 mm, 5 μm of 300 Å), flow rate: 1.2 ml/minute, gradients: 0 to 15% B after 30 minutes (KEGVOH), 0% isocratic B for 10 minutes, then at 0 to 15% B after 30 minutes (KEGVNH2), 0 to 15% B after 20 minutes (vGekNH2)).
As an alternative, LC-MS (Applied Biosystems 140C Microgradient System; solvent: 0.1% HCOOH/water (A), 0.1% HCOOH in 80% acetonitrile/water (B); column: Alltech Hypersil C18 (150×2.1 mm, 5 μm of 100 Å), flow rate: 0.15 ml/minute, gradient: 0 to 15% B after 20 minutes; detector: Finnigan TSQ-7000 Triple Quadrupole Mass Spectrometer, m/z Range; 10-1000, scan time: 1.0 second) was also used.

Another data set deals with SHSY-5Y cells. The data set can be described thus: MTT test, injury of differentiated SHSY-5Y cells with pre-aggregated Aβ-1-42. Format: cell-based. The procedure: To examine the action of the peptidomimetic agent according to the invention in a relevant biological system, injury tests were performed in cell cultures with Aβ-1-42 (β-amyloid). Differentiated SHSY-5Y cells were used as cell culture systems.
The cells that were still not differentiated were cultivated in 96-well plates at 37° C. in an atmosphere in DMEM/F12 (Cambrex) that contains 5% CO2 until confluence is completed. For differentiation, the following medium composition was selected: 10 μmol of All-Trans-retinoic acid, 10% FBS, 4 mmol of L-glutamine, 200 units/ml of penicillin, 200 μg/ml of streptomycin, 0.5% DMSO in MEM non-essential amino acids (e.g., Cambrex). After 8 days in the differentiation medium, 3×10^5 cells/cm^2 in the form of a monolayer were present.
Before the application, the test substances were irradiated for 10 minutes in a form already dissolved in culture medium. This medium contained 2% FBS (fetal bovine serum) and was free of phenol red, retinoic acid and DMSO.
Aβ-1-42 was pre-aggregated before the addition for 24 hours at room temperature while being shaken lightly. […]
Then, the medium was carefully emptied, and the formazan crystals that were produced were dissolved with a DMSO/ethanol solution (4:1). Finally, the color intensity obtained was measured at 550 nm in an ELISA reader. […]
A general note: Tetrazolium assays rely on reduction of a dye to a coloured formazan, in cell work by metabolically active cells.

Data set [2] in a line: Blood-brain barrier passage of tritiated vGek in rats (radioactivity in organs). Format: in vivo. The procedure:
The test was performed as follows:
Rats were injected with […] of tritiated vGek (vGek of specific activity: 34.0 Ci/mmol). 10, 30 and 60 minutes after the injection, the animals were anesthetized, and blood as well as a few organs were removed for examination and weighed. Depending on the organ, 50-250 mg of tissue was removed in a solvent and incubated at 60° C. for 2 hours. After cooling to room temperature, 200 μl of 30% H2O2 was added. Then, another incubation at 60° C. was carried out for 30 minutes. Finally, the radioactivity was determined with the aid of a scintillation measuring device.

As for `CC(C)[C@H](NC(=O)CNC(=O)[C@H](CCC(=O)O)NC(=O)[C@@H](N)CCCCN)C(N)=O` [KEGVNH2] (H-KEGV-NH2; N-terminus assumed), in data set [1], the remaining at 0.25 h, 0.2 mM was determined as 22%; the remaining at 1 h, 0.2 mM turned out to be 0%; the remaining at 3 h, 0.2 mM came to 0%; the half-life at 0.2 mM is less than 0.25 h. Also, the remaining at 24 h, 0.2 mM in data set [1] (24 hours) was 0%.
Turning to “Aβ-1-42: amyloidogenic β-amyloid peptide with 42 amino acids, used pre-aggregated to damage cells”, the “survival rate of SHSY-5Y cells” value in the data set with SHSY-5Y cells (10 μmol of pre-aggregated Aβ-1-42 alone) worked out at 56%.
For `CC(C)[C@H](NC(=O)CNC(=O)[C@H](CCC(=O)O)NC(=O)[C@@H](N)CCCCN)C(=O)O` [KEGVOH] (H-KEGV-OH; N-terminus assumed), in data set [1], the remaining at 0.25 h, 0.2 mM amounted to 14%; the remaining at 1 h, 0.2 mM was found to be 0%; the remaining at 3 h, 0.2 mM worked out at 0%; the half-life at 0.2 mM was less than 0.25 h. Also, the remaining at 24 h, 0.2 mM in data set [1] (24 hours) stood at 0%.
Consider `CC(C)[C@@H](N)C(=O)NCC(=O)N[C@H](CCC(=O)O)C(=O)N[C@H](CCCCN)C(=O)O` [vGek, Dval-gly-Dglu-Dlys] (H-[dV]G[dE][dK]-OH; N-terminus and C-terminus assumed), for which the “stability above that of the corresponding peptide KEGV” value in data set [1] (in vitro) is recorded as 2-3 orders of magnitude. The “influence on the survival of cells (toxicity of the peptide alone)” value in the data set on SHSY-5Y cells (50 μmol vGek alone) is recorded as “no detectable influence on the survival of cells”. Moreover, the “highest measured value in the brain” value in data set [2] (injection of 2.94 mmol tritiated vGek) came to 1.33 pmol. The “passage through the blood-brain barrier” value in data set [2] (tritiated vGek) is on record as “could overcome the blood-brain barrier”.
Take `CC(C)[C@@H](N)C(=O)NCC(=O)N[C@H](CCC(=O)O)C(=O)N[C@H](CCCCN)C(N)=O` [vGekNH2] (H-[dV]G[dE][dK]-NH2; N-terminus assumed): in data set [1] (37° C., 24 hours), the “detectability of peptide after 24 hours” value was “can be detected”. Besides, in data set [1], the remaining at 3 h, 0.2 mM was found to be 70% and the half-life at 0.2 mM fell in the range of 20 to 24 h. Also, the remaining at 24 h, 0.2 mM in data set [1] (24 hours) was determined as 50%.

Usually half-life stands for the time needed for the level to fall by half in the phase considered. Higher therefore signals slow decline.
